Experimental data taken from article PMC9029089, “1,5-Disubstituted Acylated 2-Amino-4,5-dihydroimidazoles as a New Class of Retinoic Acid Receptor–Related Orphan Receptor (ROR) Inhibitors” (International Journal of Molecular Sciences, 2022).
Read-outs that look alike come from different tables or passages of the source.

Legend:
[1] = test system: TRex-CHO-luciferase-RORγ cells; experiment: resazurin cell viability assay; assay type: cell-based; details: 5 µg/mL
Method: (§1) For screening FIU libraries, cells were resuspended in Ham’s F-12 assay medium containing 2% charcoal-treated FBS and no selection drugs. Ten thousand cells per well were seeded in 30 µL of assay medium in 384 white plates with clear bottom (Greiner). Cells were allowed to attach for 2 h, followed by compound treatment and stimulation with 20 ng/mL doxycycline for an additional 16–20 h. Appropriate solvent controls, negative controls with no doxycycline, and blanks with no cells were included in every plate. Prior to measuring luciferase activity, 6 µL of 0.15 mg/mL resazurin (Cayman Chemical) in PBS were added and cells were incubated for 1 h at 37 °C. Fluorescence intensity was detected at 545 nm excitation/590 nm emission using a CLARIOstar reader (BMGLabtech) as a measure of cell viability, to identify any potential cytotoxic effect of test compounds and mixtures. Following the resazurin assay, the medium was removed and 20 µL of BriteLite-Plus luciferase reagent (Perking Elmer) were added; luminescence was measured in a CLARIOstar reader using a 384 aperture spoon and a 0.1 sec measuring time interval.

[2] = biological target: T1, RORγ (Mus musculus, UniProt P51450); experiment: Gal4-RORγ-LBD UAS-luciferase reporter assay in TRex-CHO-K1 cells (doxycycline-stimulated); assay type: cell-based
T1 construct: mRORγ (Pro-261-end); expressed in transfected cells
T1 sequence (P51450 261-516 limits assumed): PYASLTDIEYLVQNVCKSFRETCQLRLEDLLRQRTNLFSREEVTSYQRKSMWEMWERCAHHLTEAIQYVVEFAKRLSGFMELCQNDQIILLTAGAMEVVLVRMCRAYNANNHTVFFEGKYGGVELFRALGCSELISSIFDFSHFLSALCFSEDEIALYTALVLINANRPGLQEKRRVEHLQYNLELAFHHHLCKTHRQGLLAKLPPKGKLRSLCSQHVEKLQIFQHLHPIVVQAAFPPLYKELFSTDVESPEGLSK

[3] = biological target: T2, RORβ (Rattus norvegicus, UniProt P45446); experiment: Gal4-RORβ-LBD UAS-luciferase reporter assay in TRex-CHO-K1 cells (doxycycline-stimulated); assay type: cell-based
T2 construct: rRORβ (Pro 205-end); expressed in transfected cells
T2 sequence (P45446 205-459 isoform P45446-1): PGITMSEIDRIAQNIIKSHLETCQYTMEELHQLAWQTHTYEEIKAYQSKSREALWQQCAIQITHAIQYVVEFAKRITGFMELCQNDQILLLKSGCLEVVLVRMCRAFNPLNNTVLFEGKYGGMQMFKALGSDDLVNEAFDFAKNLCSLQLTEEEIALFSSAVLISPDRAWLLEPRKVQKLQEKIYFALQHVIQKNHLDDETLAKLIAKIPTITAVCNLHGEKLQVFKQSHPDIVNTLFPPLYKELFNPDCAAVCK
Text: To investigate the transcriptional activity of all three RORs, we generated stable cell lines expressing an UAS-driven luciferase reporter together with the corresponding Gal4-DNA binding domain fused to the ligand binding domains (LBDs) of mRORγ (Pro-261-end), hRORα (Pro-211-end), or rRORβ (Pro 205-end). The Gal4-DBD-ROR-LBD fusion proteins were subcloned in the pcDNA4/TO expression vector (Thermo Scientific) and transfected into TRex-CHO-K1 cells (Thermo Scientific) for tetracycline-controlled expression of the corresponding ROR proteins. Transfected cells were selected with hygromycin and Zeocin and individual clones for each of the Gal4-RORγ, Gal4-RORα, and Gal4-RORβ cell lines were isolated using a standard serial dilution protocol. Clones with the highest doxycycline-dependent stimulation of luciferase activity were selected for all functional experiments. All cell lines were maintained in complete Ham’s F12 medium containing 10% fetal bovine serum (FBS), 10 µg/mL blasticidine, 100 µg/mL hygromycin, and 100 µg/mL Zeocin and were used within 2 months of culture without any loss of doxycycline-dependent stimulation of luciferase activity.
as §1
(§2) Luminescence was normalized by the fluorescence intensity and the percentage of inhibition was calculated with respect to control cells stimulated with doxycycline in the presence of solvent control (0.1% DMF). All primary screens with individual compounds were performed in triplicate with a final concentration of 5 µg/mL. […] IC50 values were calculated using GraphPrism (GraphPad software).

[4] = biological target: T3, RORα (Homo sapiens, UniProt P35398); experiment: Gal4-RORα-LBD UAS-luciferase reporter assay in TRex-CHO-K1 cells (doxycycline-stimulated); assay type: cell-based
T3 construct: hRORα (Pro-211-end); expressed in transfected cells
T3 sequence (P35398 266-523): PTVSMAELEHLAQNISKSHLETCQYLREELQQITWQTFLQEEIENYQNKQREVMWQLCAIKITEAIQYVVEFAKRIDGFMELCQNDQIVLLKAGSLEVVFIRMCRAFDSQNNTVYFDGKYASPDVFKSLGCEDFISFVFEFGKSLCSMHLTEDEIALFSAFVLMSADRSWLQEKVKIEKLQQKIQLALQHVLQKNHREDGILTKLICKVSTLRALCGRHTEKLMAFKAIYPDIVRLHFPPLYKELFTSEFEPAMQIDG
Text: The Gal4-DBD-ROR-LBD fusion proteins were subcloned in the pcDNA4/TO expression vector (Thermo Scientific) and transfected into TRex-CHO-K1 cells (Thermo Scientific) for tetracycline-controlled expression of the corresponding ROR proteins. Transfected cells were selected with hygromycin and Zeocin and individual clones for each of the Gal4-RORγ, Gal4-RORα, and Gal4-RORβ cell lines were isolated using a standard serial dilution protocol. Clones with the highest doxycycline-dependent stimulation of luciferase activity were selected for all functional experiments.
as §1, with “Ten thousand cells per well were seeded in 30 µL of assay medium in 384 white plates with clear bottom (Greiner).” left out, “mixtures.” for “mixtures. Following the resazurin assay, the medium was removed and 20 µL of BriteLite-Plus luciferase reagent (Perking Elmer) were added; luminescence was measured in a CLARIOstar reader using a 384 aperture spoon and a 0.1 sec measuring time interval.”
as §2

[5] = biological target: T1, RORγ; experiment: Gal4-RORγ-LBD UAS-luciferase reporter assay in TRex-CHO-K1 cells (doxycycline-stimulated); assay type: cell-based; details: for inhibition at 4 µM: T-REx-CHO-K1, library 2520, RORγ cells, read-out: % Inhibition at 4 μM (N=3); for % Inhibition at 4 μM (N=3): library 2520, RORγ cells
[6] = test system: Th17 cells; set-up: method as in PMID 21441909, PMID 21499262, PMID 21566134; details: RORγ inverse agonists; cited from earlier work
[7] = test system: experimental autoimmune encephalomyelitis mouse model; set-up: method as in PMID 21441909, PMID 21499262, PMID 21566134; details: EAE mouse model; cited from earlier work
[8] = IC50 (μM, N=4) ROR-Beta, library 2520
[9] = IC50 (μM, N=4) ROR-Alpha, library 2520
[10] = RORα : IC50, Figure 6, confirmatory experiment, N = 4
[11] = IC50 (μM, N=4) ROR-Gamma, library 2520
[12] = RORγ : IC50, Figure 6, confirmatory experiment, N = 4
[13] = Figure 6, confirmatory experiment, N = 4, read-out: RORβ : IC50
[14] = read-out: IC50 (μM, N=4) ROR-Beta, library 2520
[15] = read-out: IC50 (μM, N=4) ROR-Alpha, library 2520
[16] = read-out: IC50 (μM, N=4) ROR-Gamma, library 2520

Row | IC50 [3, 8] [µM] | IC50 [4, 9] [µM] | IC50 [2, 11] [µM] | IC50 [2, 12] [µM] | inhibition at 4 µM [5] [%] | SMILES | suppression of Th17 differentiation [6] | suppression of the onset of disease [7] | further results
1 |  |  |  |  |  | O=C(Cc1ccccc1)NC1=NC[C@H](Cc2ccccc2)N1CCC12CC3CC(CC(C3)C1)C2 [1295.271] |  |  | toxicity as determined by a resazurin assay [1]: significant toxicity; % Inhibition RORγ 5 μg/ml ([2]; individual controls 1295.201-307, 5 μg/ml, triplicate): 36.0%
2 | 5.5 ± 0.3 | 6.82 ± 0.4 | 3.95 ± 0.3 | 3.9 ± 0.3 | 70.5 | CCC(C(=O)NC1=NC[C@H](Cc2ccccc2)N1CCC(C)c1ccccc1)c1ccccc1 (some centres unmarked) [2520.31] |  |  | IC50 [4, 10]: 6.8 ± 0.4 µM
3 | 5.34 ± 0.4 | 6.36 ± 0.3 | 4.36 ± 0.2 | 4.3 ± 0.2 | 73.2 | CCOc1ccc(C[C@H]2CN=C(NC(=O)C(CC)c3ccccc3)N2CC2CCCCC2)cc1 (some centres unmarked) [2520.39] |  |  | IC50 [3, 13]: 5.3 ± 0.4 µM; IC50 [4, 10]: 6.3 ± 0.3 µM
4 |  |  |  |  |  | CCOc1ccc(C[C@H]2CN=C(NC(=O)Cc3ccc(OC)cc3)N2CC2CCCCC2)cc1 [2520.42] |  |  | IC50 [3, 14]: 5.21 ± 0.3 µM; IC50 [4, 15]: 5.4 ± 0.4 µM; IC50 [2, 16]: 5.17 ± 0.8 µM; % Inhibition at 4 μM (N=3) [5]: 96.5%
5 | 6.67 ± 0.4 | 7.2 ± 0.4 | 4.68 ± 0.2 | 4.6 ± 0.2 | 51.3 | CCOc1ccc(C[C@H]2CN=C(NC(=O)C(CC)c3ccccc3)N2CCC2CC3CCC2C3)cc1 (some centres unmarked) [2520.47] |  |  | IC50 [3, 13]: 6.6 ± 0.4 µM
6 |  |  |  |  |  | CCOc1ccc(C[C@H]2CN=C(NC(=O)C(C)C)N2CC2CCCCC2)cc1 [2520.48] |  |  | IC50 [3, 14]: 6.57 ± 0.5 µM; IC50 [4, 15]: 9.61 ± 0.5 µM; IC50 [2, 16]: 9.27 ± 0.4 µM; % Inhibition at 4 μM (N=3) [5]: 69.2%
7 |  |  |  |  |  | CC(=O)Nc1nc(C)c(S(=O)(=O)Nc2ccc(C(O)(C(F)(F)F)C(F)(F)F)cc2)s1 [SR1001] | suppress Th17 differentiation | suppress Th17 differentiation and the onset of disease | 
8 |  |  |  |  |  | C[C@H]1O[C@@H](O[C@H]2[C@@H](O)C[C@H](O[C@H]3[C@@H](O)C[C@H](O[C@H]4CC[C@@]5(C)[C@H](CC[C@@H]6[C@@H]5C[C@@H](O)[C@]5(C)[C@@H](C7=CC(=O)OC7)CC[C@]65O)C4)O[C@@H]3C)O[C@@H]2C)C[C@H](O)[C@@H]1O [digoxin] | suppress Th17 differentiation | suppress Th17 differentiation and the onset of disease | 
9 |  |  |  |  |  | C[C@H]1[C@H](C)CC[C@]2(C(=O)O)CC[C@]3(C)C(=CC[C@@H]4[C@@]5(C)CC[C@H](O)C(C)(C)[C@@H]5CC[C@]43C)[C@H]12 [ursolic acid] | suppress Th17 differentiation | suppress Th17 differentiation and the onset of disease | 
